Laboratory results reported in US6979686B1, “Substituted pyrazoles as p38 kinase inhibitors” (Pharmacia Corporation, priority 2001, dated 2005).
Like-named read-outs stand apart in the source and are kept apart here. Each block holds one compound with its values, some of them ahead of it.

What was measured:
human p38 kinase alpha = biological target: T1, human p38 kinase alpha (Homo sapiens, UniProt Q16539); assay: p38 kinase in vitro assay, phosphorylation of biotinylated PHAS-I with 32P-ATP; format: biochemical
T1 construct: GST (N, cleaved yes); made in house; host or cells: E. coli DH10B
T1 sequence (Q16539 whole entry): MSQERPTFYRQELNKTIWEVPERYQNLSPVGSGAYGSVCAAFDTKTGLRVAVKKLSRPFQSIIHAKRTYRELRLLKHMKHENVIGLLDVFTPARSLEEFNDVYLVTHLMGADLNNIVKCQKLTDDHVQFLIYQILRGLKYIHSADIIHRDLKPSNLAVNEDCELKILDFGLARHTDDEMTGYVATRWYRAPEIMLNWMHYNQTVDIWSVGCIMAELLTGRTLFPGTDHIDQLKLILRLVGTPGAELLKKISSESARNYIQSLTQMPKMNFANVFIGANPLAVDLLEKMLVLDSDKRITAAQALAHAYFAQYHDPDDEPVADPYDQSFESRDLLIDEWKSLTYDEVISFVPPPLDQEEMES

[1] = system: TNF-α, U937 human histiocytic lymphoma cell line; assay: LPS stimulation of TNF production by U937 cells; format: cell-based; conditions: for inhibition at 1 µM: U-937, @ 1.0 uM, read-out: U937 Cell % inhib @ conc.
In short: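 U937 cells differentiated 24 h with 20 ng/ml PMA, rested 24-48 h, used at 2 million cells/ml. Compounds in 0.1% DMSO final; LPS (E. coli, 100 ng/ml final) stimulation for 4 h at 37° C. Released TNF-α measured by ELISA; IC50 (μM).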

[2] = in vitro P38-alpha kinase, read-out: P38 alpha kinase IC50
[3] = TNF production, human U937 cells stimulated with LPS, read-out: U937 Cell IC50
[4] = in vitro P38-alpha kinase inhibition, read-out: P38 alpha kinase IC50
[5] = Homo sapiens, U-937, TNF production, human U937 cells stimulated with LPS, read-out: U937 Cell IC50
[6] = TNF production, U937 cells stimulated with LPS, read-out: U937 Cell IC50, uM or % inhib @ conc. (uM): IC50
[7] = @ 1.0 uM, TNF production, U937 cells stimulated with LPS
[8] = @ 10.0 uM, TNF production, U937 cells stimulated with LPS
[9] = Homo sapiens, TNF production, U937 cells stimulated with LPS
[10] = Homo sapiens, TNF production, LPS-stimulated U937 cells

Structure (SMILES): COc1cc(NC(=O)CCNC(=O)Cn2nc(-c3ccc(F)cc3)c(-c3ccncc3)c2C)cc2ccccc12 [Example B-2298]
IC50 (human p38 kinase alpha; [2]): 0.29 µM | IC50 [1, 3]: 4.22 µM

Structure (SMILES): COc1ccc(CC(=O)NCCCc2[nH]nc(-c3ccc(F)cc3)c2-c2ccncc2)cc1 [Example B-1177]
P38 alpha kinase % inhib @ conc. (uM) (human p38 kinase alpha; @ 1.0 uM): 70.0% @ | IC50 [1, 3]: 1.16 µM

Structure (SMILES): O=C(c1ccc(Br)cc1)N1CCC(c2[nH]nc(-c3ccc(F)cc3)c2-c2ccncc2)CC1 [Example B-1388]
IC50 (human p38 kinase alpha; [2]): 0.57 µM | IC50 [1, 5]: 1.38 µM

Structure (SMILES): O=C(c1ccc(Cl)cc1)N1CCC(c2[nH]nc(-c3ccc(F)cc3)c2-c2ccncc2)CC1 [Example B-1389]
IC50 (human p38 kinase alpha; [2]): 0.06 µM | IC50 [1, 5]: 0.57 µM

Structure (SMILES): Cc1c(-c2ccncc2)c(-c2ccc(F)cc2)nn1CC(=O)Nc1ccccc1OC(F)(F)F [Example B-2453]
P38 alpha kinase IC50, uM or % inhib @ conc. (uM): % inhib (human p38 kinase alpha; @ 10.0 uM): 91.0% @ | IC50 [1, 6]: > 10 µM

Structure (SMILES): COc1cccc(CC(=O)NCCc2[nH]nc(-c3ccc(F)cc3)c2-c2ccncc2)c1 [Example B-1001]
P38 alpha kinase % inhib @ conc. (uM) (human p38 kinase alpha; @ 1.0 uM): 63.0% @ | U937 Cell % inhib @ conc. (uM) [1, 7]: 31.0% @

Structure (SMILES): COc1ccc(CC(=O)NCc2[nH]nc(-c3ccc(F)cc3)c2-c2ccncc2)cc1OC [Example B-0034]
inhibition at 1 µM (human p38 kinase alpha; @ 1.0 uM, read-out: P38 alpha kinase % inhib @ conc.): 95% | IC50 [1, 5]: 10 µM

Structure (SMILES): CCOC(=O)NC(=O)NCc1[nH]nc(-c2ccc(F)cc2)c1-c1ccncc1 [Example B-0152]
P38 alpha kinase % inhib @ conc. (human p38 kinase alpha; @ 1.0 uM): 51.0% @ | U937 Cell % inhib @ conc. [1, 7]: 24.0% @

Structure (SMILES): O=C(NCCc1[nH]nc(-c2ccc(F)cc2)c1-c1ccncc1)c1ccc(F)c(F)c1F [Example B-0997]
P38 alpha kinase % inhib @ conc. (uM) (human p38 kinase alpha; @ 1.0 uM): 69.0% @ | U937 Cell % inhib @ conc. (uM) [1, 7]: 22.0% @

Structure (SMILES): O=C(NCCc1[nH]nc(-c2ccc(F)cc2)c1-c1ccncc1)NC(=O)c1ccccc1 [Example B-0934]
P38 alpha kinase % inhib @ conc. (uM) (human p38 kinase alpha; @ 1.0 uM): 67.0% @ | U937 Cell % inhib @ conc. (uM) [1, 7]: 36.0% @

Structure (SMILES): CCOc1ccc(-c2n[nH]c(C)c2-c2ccncc2)cc1 [Example A-47]
IC50 (human p38 kinase alpha; activated human p38 kinase alpha, PHAS-I substrate, 50 μM unlabeled ATP, read-out: p38 kinase IC50): 3.2 µM | IC50 ([1]; Table 5, LPS-stimulated U937 cells, TNF-α, read-out: U937 Cell Assay IC50): 2.36 µM

Structure (SMILES): Cc1c(-c2ccncc2)c(-c2ccc(F)cc2)nn1CC(=O)N1CCC(N(C)C(=O)OC(C)(C)C)C1 (stereo not drawn) [Example B-2389]
P38 alpha kinase IC50, uM or % inhib @ conc. (uM): % inhib (human p38 kinase alpha; @ 10.0 uM): 39.0% @ | U937 Cell IC50, uM or % inhib @ conc. (uM): % inhib [1, 8]: 29.0% @

Structure (SMILES): CC(C)C(=O)NC(Cc1ccccc1)c1[nH]nc(-c2ccc(F)cc2)c1-c1ccncc1 (stereo not drawn) [Example B-0831]
IC50 (human p38 kinase alpha; [4]): 0.9 µM | IC50 [1, 5]: > 1 µM

Structure (SMILES): CNC(=O)CCC(NC(=O)c1ccc(C)cc1)c1[nH]nc(-c2ccc(F)cc2)c1-c1ccncc1 (stereo not drawn) [Example B-0873]
IC50 (human p38 kinase alpha; [4]): 6.92 µM | IC50 [1, 5]: > 1 µM

Structure (SMILES): Cc1ccc(NC(=O)Cn2nc(-c3ccc(F)cc3)c(-c3ccncc3)c2C)cc1 [Example B-2423]
P38 alpha kinase IC50, uM or % inhib @ conc. (uM): % inhib (human p38 kinase alpha; @ 10.0 uM): 85.0% @ | IC50 [1, 6]: > 10 µM

Structure (SMILES): CCOC(=O)C(CCSC)NC(=O)NCc1[nH]nc(-c2ccc(F)cc2)c1-c1ccncc1 (stereo not drawn) [Example B-0147]
P38 alpha kinase % inhib @ conc. (human p38 kinase alpha; @ 1.0 uM): 44.0% @ | U937 Cell % inhib @ conc. [1, 7]: 22.0% @

Structure (SMILES): O=[N+]([O-])c1ccc(S(=O)(=O)NCc2[nH]nc(-c3ccc(F)cc3)c2-c2ccncc2)cc1 [Example B-0115]
P38 alpha kinase % inhib @ conc. (human p38 kinase alpha; @ 1.0 uM): 47.0% @ | U937 Cell % inhib @ conc. [1, 7]: 2.0% @

Structure (SMILES): COc1cccc(CC(=O)NC(C)c2[nH]nc(-c3ccc(F)cc3)c2-c2ccncc2)c1 (stereo not drawn) [Example B-0550]
IC50 (human p38 kinase alpha; [4]): 2.41 µM | inhibition at 1 µM ([1]; Homo sapiens, TNF production in human U937 cells stimulated with LPS): 14%

Structure (SMILES): COc1ccc(C2OCCN2C(=O)Cn2nc(-c3ccc(F)cc3)c(-c3ccncc3)c2C)cc1OC (stereo not drawn) [Example B-2399]
P38 alpha kinase IC50, uM or % inhib @ conc. (uM): % inhib (human p38 kinase alpha; @ 10.0 uM): 69.0% @ | U937 Cell IC50, uM or % inhib @ conc. (uM): % inhib [1, 8]: 18.0% @

Structure (SMILES): Cc1c(-c2ccncc2)c(-c2ccc(F)cc2)nn1CC(=O)N(CC1CC1)C(C)Cc1ccc(Cl)cc1 (stereo not drawn) [Example B-2397]
P38 alpha kinase IC50, uM or % inhib @ conc. (uM): % inhib (human p38 kinase alpha; @ 10.0 uM): 83.0% @ | U937 Cell IC50, uM or % inhib @ conc. (uM): % inhib [1, 8]: 22.0% @

Structure (SMILES): CC(NC(=O)Nc1cccc(F)c1)c1[nH]nc(-c2ccc(F)cc2)c1-c1ccncc1 (stereo not drawn) [Example B-0595]
IC50 (human p38 kinase alpha; [4]): 2.42 µM | U937 Cell % inhib @ conc. (uM) ([1]; @ 1.0 uM, TNF production in human U937 cells stimulated with LPS): 22.0% @

Structure (SMILES): O=C(NC(Cc1ccccc1)c1[nH]nc(-c2ccc(F)cc2)c1-c1ccncc1)C1CC1 (stereo not drawn) [Example B-0837]
IC50 (human p38 kinase alpha; [4]): 1.96 µM | IC50 [1, 3]: > 1 µM

Structure (SMILES): CC(NC(=O)NCc1ccccc1)c1[nH]nc(-c2ccc(F)cc2)c1-c1ccncc1 (stereo not drawn) [Example B-0580]
IC50 (human p38 kinase alpha; [4]): 2.23 µM | IC50 ([1]; TNF production in human U937 cells stimulated with LPS, read-out: U937 Cell IC50): 0.84 µM

Structure (SMILES): O=C(NCCCc1[nH]nc(-c2ccc(F)cc2)c1-c1ccncc1)NCCc1ccccn1 [Example B-1314]
IC50 (human p38 kinase alpha; [2]): 0.045 µM | inhibition at 1 µM [1, 10]: 24%

More lines, main results first:

IC50 (human p38 kinase alpha; [4]): 3.02 µM | IC50 [1, 5]: > 1 µM
Structure (SMILES): O=C(NC(Cc1ccccc1)c1[nH]nc(-c2ccc(F)cc2)c1-c1ccncc1)c1ccc(F)c(F)c1F (stereo not drawn) [Example B-0813]

IC50 (human p38 kinase alpha; [4]): 3.13 µM | IC50 [1, 5]: > 1 µM
Structure (SMILES): CNC(=O)CCC(NC(=O)COC)c1[nH]nc(-c2ccc(F)cc2)c1-c1ccncc1 (stereo not drawn) [Example B-0870]

P38 alpha kinase % inhib @ conc. (human p38 kinase alpha; @ 10.0 uM): 58.0% @
Structure (SMILES): Cc1c(-c2ccncc2)c(-c2ccc(F)cc2)nn1CC(=O)NC1CCCC1 [Example B-2333]
U937 Cell % inhib @ conc. ([1]; @ 10.0 uM, TNF production, LPS-stimulated U937 cells): 36.0% @

IC50 (human p38 kinase alpha; [4]): 0.62 µM | IC50 [1, 5]: > 1 µM
Structure (SMILES): CNC(=O)CCC(NC(=O)c1cccc(Br)c1)c1[nH]nc(-c2ccc(F)cc2)c1-c1ccncc1 (stereo not drawn) [Example B-0867]

IC50 (human p38 kinase alpha; [4]): 2.11 µM | IC50 [1, 5]: > 1 µM
Structure (SMILES): COc1ccc(CC(=O)NC(Cc2ccccc2)c2[nH]nc(-c3ccc(F)cc3)c2-c2ccncc2)cc1OC (stereo not drawn) [Example B-0815]

P38 alpha kinase % inhib @ conc. (uM) (human p38 kinase alpha; @ 10.0 uM): 63.0% @
Structure (SMILES): O=C(NCCc1[nH]nc(-c2ccc(F)cc2)c1-c1ccncc1)Nc1ccc(Cc2ccccc2)cc1 [Example B-0943]
U937 Cell % inhib @ conc. (uM) [1, 7]: 24.0% @

IC50 (human p38 kinase alpha; [4]): 0.72 µM
Structure (SMILES): O=C(NCCc1[nH]nc(-c2ccc(F)cc2)c1-c1ccncc1)c1cccc(Cl)c1Cl [Example B-1132]
inhibition at 1 µM [1, 9]: 11%

IC50 (human p38 kinase alpha; [2]): 0.19 µM
Structure (SMILES): Cn1cnc(S(=O)(=O)N2CCC(c3[nH]nc(-c4ccc(F)cc4)c3-c3ccncc3)CC2)c1 [Example B-1434]
inhibition at 1 µM [1, 10]: 28%

P38 alpha kinase % inhib @ conc. (human p38 kinase alpha; @ 10.0 uM): 84.0% @ | IC50 [1, 3]: > 10 µM
Structure (SMILES): COC(=O)[C@H](CSCc1ccccc1)NC(=O)Cn1nc(-c2ccc(F)cc2)c(-c2ccncc2)c1C [Example B-2339]

P38 alpha kinase IC50, uM or % inhib @ conc. (uM): % inhib (human p38 kinase alpha; @ 10.0 uM): 37.0% @ | U937 Cell IC50, uM or % inhib @ conc. (uM): % inhib [1, 8]: 22.0% @
Structure (SMILES): COCCN(Cc1cccc(OC)c1)C(=O)Cn1nc(-c2ccc(F)cc2)c(-c2ccncc2)c1C [Example B-2394]

P38 alpha kinase IC50, uM or % inhib @ conc. (uM): % inhib (human p38 kinase alpha; @ 100.0 uM): 50.0% @ | IC50 [1, 6]: > 10 µM
Structure (SMILES): Cc1c(-c2ccncc2)c(-c2ccc(F)cc2)nn1CC(=O)N(C)CCCC1c2ccccc2CCc2ccccc21 [Example B-2387]

P38 alpha kinase IC50, uM or % inhib @ conc. (uM): % inhib (human p38 kinase alpha; @ 10.0 uM): 94.0% @ | IC50 [1, 6]: > 10 µM
Structure (SMILES): CCCCCSc1cccc(NC(=O)Cn2nc(-c3ccc(F)cc3)c(-c3ccncc3)c2C)c1 [Example B-2447]

P38 alpha kinase % inhib @ conc. (uM) (human p38 kinase alpha; @ 1.0 uM): 74.0% @
Structure (SMILES): O=C(NCCc1[nH]nc(-c2ccc(F)cc2)c1-c1ccncc1)c1ccccc1 [Example B-1003]
U937 Cell % inhib @ conc. (uM) [1, 7]: 29.0% @

IC50 (human p38 kinase alpha; [4]): 0.08 µM
Structure (SMILES): O=S(=O)(NCCc1[nH]nc(-c2ccc(F)cc2)c1-c1ccncc1)c1ccc(Cl)cc1Cl [Example B-1076]
inhibition at 1 µM [1, 9]: 31%

IC50 (human p38 kinase alpha; [2]): < 0.1 µM | IC50 [1, 5]: 0.25 µM
Structure (SMILES): O=C(c1ccccn1)N1CCC(c2[nH]nc(-c3ccc(F)cc3)c2-c2ccncc2)CC1 [Example B-1386]
